# Reference: US4330532A, “Angiotensin-II analogues with antagonizing effects, containing an α-hydroxycarboxylic acid residue in position 8, and a process for the preparation thereof” (Richter Gedeon Vegyeszeti Gyar Rt., priority 1980, dated 1982)
# Tested on: hypertension provoked by angiotensin-II (Hypertensin (CIBA) infusion)
# Test: Antagonistic (hypotensive) effect on Hypertensin-infused narcotized male cats
# Format: in vivo, cat
# Procedure: The antagonistic effects of the new compounds of the formula (I) were investigated on narcotized male cats. After treating the animals with a ganglion blocking agent and bisecting the cervical vagus nerves on both sides, the animals were treated with an infusion of Hypertensin (CIBA) at a rate of 0.5 μg/kg/min. When the blood pressure of the animals reached a steady, increased level, the substance to be tested was administered either intravenously or subcutaneously in physiological saline solution or as an aqueous solution which also contained a carrier. The blood pressure drop was measured in mm Hg units, and the extent of decrease was expressed in percents related to the value before treatment. The statistical evaluation was performed on the basis of the blood pressure differences, by Student's single sample "t" test. The term "duration of effect" denotes the period elapsed until the observation of the last still significant (p±5%) blood pressure difference.
# [1] = s.c., carboxymethyl cellulose (CMC) carrier, dose 100 μg/kg
# [2] = s.c., carboxymethyl cellulose (CMC) carrier, dose 200 μg/kg
# [3] = s.c., gelatine carrier, dose 200 μg/kg
# [4] = s.c., physiological saline, dose 100 μg/kg
# [5] = s.c., physiological saline, dose 200 μg/kg
compound,measurement,setting,value
"CNCC(=O)N[C@@H](CCCN=C(N)N)C(=O)N[C@H](C(=O)N[C@@H](Cc1ccc(O)cc1)C(=O)N[C@H](C(=O)N[C@@H](Cc1cnc[nH]1)C(=O)N1CCC[C@H]1C(=O)N[C@@H](C)C(=O)O)C(C)C)C(C)C [Saralasin, (Sar^1, Ala^8)-angiotensin-II]","blood pressure drop, extent of decrease in percents related to the value before treatment","i.v., dose 10 μg/kg",32%
same,duration of effect,"i.v., dose 10 μg/kg",15 min
same,"blood pressure drop, extent of decrease in percents related to the value before treatment",[1],23%
same,duration of effect,[1],45 min
same,"blood pressure drop, extent of decrease in percents related to the value before treatment",[2],28%
same,duration of effect,[2],90 min
same,"blood pressure drop, extent of decrease in percents related to the value before treatment",[3],23%
same,duration of effect,[3],.phi.
same,"blood pressure drop, extent of decrease in percents related to the value before treatment",[4],29%
same,duration of effect,[4],60 min
same,"blood pressure drop, extent of decrease in percents related to the value before treatment",[5],24%
same,duration of effect,[5],45 min
